What was measured:
LIXAH SNU-398 = experiment: 2D cell proliferation assay (CellTiter-Blue); format: cell-based; settings: Homo sapiens, 72 h, three days of treatment, read-out: abs. IC50
Summary of the method: (§1)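 Three-day 2D growth inhibition: cells seeded at 4,000-60,000/well, rested 24 h, then dosed with five full-log concentrations up to 100 μM. Metabolic conversion of CellTiter-Blue was measured fluorometrically. IC50 values come from 4-parameter sigmoidal fits of T/C% against untreated cells.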

LEXFCL MEC-1 = experiment: 2D cell proliferation assay (CellTiter-Blue); format: cell-based; settings: Homo sapiens, MEC1, 72 h, three days of treatment, read-out: abs. IC50
Summary of the method: as §1

MAXFTN MDA-MB-453 = experiment: 2D cell proliferation assay (CellTiter-Blue); format: cell-based; settings: Homo sapiens, 72 h, three days of treatment, read-out: abs. IC50
Summary of the method: as §1

PRXF VCap = experiment: 2D cell proliferation assay (CellTiter-Blue); format: cell-based; settings: Homo sapiens, 72 h, three days of treatment, read-out: abs. IC50
Summary of the method: as §1

MMXF U-266 = experiment: 2D cell proliferation assay (CellTiter-Blue); format: cell-based; settings: Homo sapiens, 72 h, three days of treatment, read-out: abs. IC50
Summary of the method: as §1

MEXF A-375 = experiment: 2D cell proliferation assay (CellTiter-Blue); format: cell-based; settings: Homo sapiens, 72 h, three days of treatment, read-out: abs. IC50
Summary of the method: as §1

LIXAH HLE = experiment: 2D cell proliferation assay (CellTiter-Blue); format: cell-based; settings: 72 h, three days of treatment, read-out: abs. IC50
Summary of the method: as §1

PRXF DU-145 = experiment: 2D cell proliferation assay (CellTiter-Blue); format: cell-based; settings: Homo sapiens, 72 h, three days of treatment, read-out: abs. IC50
Summary of the method: as §1

UXF MFE-319 = experiment: 2D cell proliferation assay (CellTiter-Blue); format: cell-based; settings: 72 h, three days of treatment, read-out: abs. IC50
Summary of the method: as §1

CXF HT-29 = experiment: 2D cell proliferation assay (CellTiter-Blue); format: cell-based; settings: Homo sapiens, 72 h, three days of treatment, read-out: abs. IC50
Summary of the method: as §1

MAXFTN BT-549 = experiment: 2D cell proliferation assay (CellTiter-Blue); format: cell-based; settings: Homo sapiens, 72 h, three days of treatment, read-out: abs. IC50
Summary of the method: as §1

PRXF LNCaP = experiment: 2D cell proliferation assay (CellTiter-Blue); format: cell-based; settings: Homo sapiens, 72 h, three days of treatment, read-out: abs. IC50
Summary of the method: as §1

MAXFTN MDA-MB-468 (ER−) = experiment: 2D cell proliferation assay (CellTiter-Blue); format: cell-based; settings: Homo sapiens, 72 h, three days of treatment, read-out: abs. IC50
Summary of the method: as §1

MEXF M14 = experiment: 2D cell proliferation assay (CellTiter-Blue); format: cell-based; settings: 72 h, three days of treatment, read-out: abs. IC50
Summary of the method: as §1

UXF EFE-184 = experiment: 2D cell proliferation assay (CellTiter-Blue); format: cell-based; settings: Homo sapiens, 72 h, three days of treatment, read-out: abs. IC50
Summary of the method: as §1

CXF HCT-15 = experiment: 2D cell proliferation assay (CellTiter-Blue); format: cell-based; settings: Homo sapiens, 72 h, three days of treatment, read-out: abs. IC50
Summary of the method: as §1

CXF COLO 205 = experiment: 2D cell proliferation assay (CellTiter-Blue); format: cell-based; settings: Homo sapiens, 72 h, three days of treatment, read-out: abs. IC50
Summary of the method: as §1

LYXFNH Daudi = experiment: 2D cell proliferation assay (CellTiter-Blue); format: cell-based; settings: Homo sapiens, 72 h, three days of treatment, read-out: abs. IC50
Summary of the method: as §1

LEXFAM MV4-11 = experiment: 2D cell proliferation assay (CellTiter-Blue); format: cell-based; settings: Homo sapiens, 72 h, three days of treatment, read-out: abs. IC50
Summary of the method: (§2)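 Cells at 4,000-60,000/well recovered 24 h, then five full-log concentrations up to 100 μM in duplicate for three days at 37 °C. CellTiter-Blue fluorescence (ex 570/em 600 nm) after up to 4 h; T/C% vs untreated controls, relative IC50 and absolute IC50/IC70 by 4-parameter fit.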

MEXF A2058 = experiment: 2D cell proliferation assay (CellTiter-Blue); format: cell-based; settings: Homo sapiens, 72 h, three days of treatment, read-out: abs. IC50
Summary of the method: as §1

MAXFHER SK-BR-3 = experiment: 2D cell proliferation assay (CellTiter-Blue); format: cell-based; settings: Homo sapiens, 72 h, three days of treatment, read-out: abs. IC50
Summary of the method: as §1

PRXF 22Rv1 = experiment: 2D cell proliferation assay (CellTiter-Blue); format: cell-based; settings: Homo sapiens, 72 h, three days of treatment, read-out: abs. IC50
Summary of the method: as §1

LXFL NCl-H1299 = experiment: 2D cell proliferation assay (CellTiter-Blue); format: cell-based; settings: 72 h, three days of treatment, read-out: abs. IC50
Summary of the method: as §2

BXF 5637 = experiment: 2D cell proliferation assay (CellTiter-Blue); format: cell-based; settings: 72 h, three days of treatment, read-out: abs. IC50
Summary of the method: as §1

MAXFTN ZR-75-1 (ER+) = experiment: 2D cell proliferation assay (CellTiter-Blue); format: cell-based; settings: Homo sapiens, 72 h, three days of treatment, read-out: abs. IC50
Summary of the method: as §2

LIXFH HEP-3B = experiment: 2D cell proliferation assay (CellTiter-Blue); format: cell-based; settings: Homo sapiens, Hep3B, 72 h, three days of treatment, read-out: abs. IC50
Summary of the method: as §1

CEXF HeLa = experiment: 2D cell proliferation assay (CellTiter-Blue); format: cell-based; settings: Homo sapiens, 72 h, three days of treatment, read-out: abs. IC50
Summary of the method: as §1

MEXF MDA-MB-435 = experiment: 2D cell proliferation assay (CellTiter-Blue); format: cell-based; settings: Homo sapiens, 72 h, three days of treatment, read-out: abs. IC50
Summary of the method: as §1

LEXFAL MOLT-4 = experiment: 2D cell proliferation assay (CellTiter-Blue); format: cell-based; settings: Homo sapiens, 72 h, three days of treatment, read-out: abs. IC50
Summary of the method: as §1

[1] = Pharmacokinetics after IV bolus; format: in vivo; settings: rat, plasma; rats; IV bolus 30 mg/kg; N = 3
Description: (§3) Nonclinical pharmacokinetic (PK) parameters of lead CDK4/6/9 inhibitors were determined in an intravenous (IV) and oral study (p.o.) conducted in rats. Lead compounds were each administered as a single oral dose at 100 mg/kg or by IV bolus via the caudal vein at the dose of 30 mg/kg. Blood samples were collected at 0.25, 0.5, 1, 2, 4, 8, 12, and 24 hours post i.v. administration, and at 1, 2, 4, 8, 24 and 48 hours post oral administration. Plasma was processed for drug concentration analysis using a validated LCMS/MS method, and PK parameters were calculated by using WinNonlin.

[2] = Pharmacokinetics after oral administration; format: in vivo; settings: rat, plasma, rats
Description: as §3

[3] = oral administration 100 mg/kg, N = 3

Compound	IC50 (LIXAH SNU-398) [nM]	IC50 (LEXFCL MEC-1) [nM]	IC50 (MAXFTN MDA-MB-453) [nM]	IC50 (PRXF VCap) [nM]	IC50 (MMXF U-266) [nM]	IC50 (MEXF A-375) [nM]	IC50 (LIXAH HLE) [nM]	IC50 (PRXF DU-145) [nM]	IC50 (UXF MFE-319) [nM]	IC50 (CXF HT-29) [nM]	IC50 (MAXFTN BT-549) [nM]	IC50 (PRXF LNCaP) [nM]	IC50 (MAXFTN MDA-MB-468 (ER−)) [nM]	IC50 (MEXF M14) [nM]	IC50 (UXF EFE-184) [nM]	IC50 (CXF HCT-15) [nM]	IC50 (CXF COLO 205) [nM]	IC50 (LEXFAM MV4-11) [nM]	IC50 (MEXF A2058) [nM]	IC50 (MAXFHER SK-BR-3) [nM]	other results
O=C1NCC[C@@]12Cc1cnc(Nc3ccc(N4CCNCC4)cc3F)nc1N(C1CCCC1)C2=O [Example D146, (S)-8-cyclopentyl-2-((2-fluoro-4-(piperazin-1-yl)phenyl)amino)-5,8-dihydro-7H-spiro[pyrido[2,3-d]pyrimidine-6,3′-pyrrolidine]-2′,7-dione]	251	142	327	1260	4550	263	928	544	1140	8980	2310	349	925	1580	2080	2050	577	≤ 10	1530	1020	IC50 (LYXFNH Daudi): 162 nM; IC50 (PRXF 22Rv1): 138 nM; IC50 (LXFL NCl-H1299): 8900 nM; IC50 (BXF 5637): 1490 nM; IC50 (MAXFTN ZR-75-1 (ER+)): 9020 nM; IC50 (LIXFH HEP-3B): 3670 nM; IC50 (CEXF HeLa): 1570 nM; IC50 (MEXF MDA-MB-435): 875 nM
CC(C)N1CCN(c2ccc(Nc3ncc4c(n3)N(C3CCCC3)C(=O)[C@]3(CCNC3=O)C4)nc2)CC1 [Example D154, (S)-8-cyclopentyl-2-((5-(4-isopropylpiperazin-1-yl)pyridin-2-yl)amino)-5,8-dihydro-7H-spiro[pyrido[2,3-d]pyrimidine-6,3′-pyrrolidine]-2′,7-dione]	6840	9700	7680	25400	78500	254	21500	30600	5430	29900	19600	31100	72900	21400	34600	22100	4760	≤ 10	14500	13800	IC50 (PRXF 22Rv1): 1420 nM; IC50 (LXFL NCl-H1299): 37300 nM; IC50 (BXF 5637): 17600 nM; IC50 (MAXFTN ZR-75-1 (ER+)): ≥ 100000 nM; IC50 (LIXFH HEP-3B): 78900 nM; IC50 (CEXF HeLa): 72600 nM; IC50 (MEXF MDA-MB-435): 16000 nM
CN(C)[C@H]1CCN(c2ccc(Nc3ncc4c(n3)N(C3CCCC3)C(=O)[C@]3(CCNC3=O)C4)nc2)C1 [Example D178, (S)-8-cyclopentyl-2-((5-((S)-3-(dimethylamino)pyrrolidin-1-yl)pyridin-2-yl)amino)-5,8-dihydro-7H-spiro[pyrido[2,3-d]pyrimidine-6,3′-pyrrolidine]-2′,7-dione]	608	37000	2000	21100	62300	769	21300	19200	11300	31800	16600	20800	68200	24600	22600	29500	6220	≤ 10	60400	31900	IC50 (PRXF 22Rv1): 447 nM; IC50 (LXFL NCl-H1299): 30100 nM; IC50 (BXF 5637): 34300 nM; IC50 (MAXFTN ZR-75-1 (ER+)): 88200 nM; IC50 (LIXFH HEP-3B): 67800 nM; IC50 (CEXF HeLa): 36900 nM; IC50 (MEXF MDA-MB-435): 18300 nM
CN(C)CCOc1ccc(Nc2ncc3c(n2)N(C2CCCC2)C(=O)[C@]2(CCNC2=O)C3)cc1 [Example D179, (S)-8-cyclopentyl-2-((4-(2-(dimethylamino)ethoxy)phenyl)amino)-5,8-dihydro-7H-spiro[pyrido[2,3-d]pyrimidine-6,3′-pyrrolidine]-2′,7-dione]	25	447	57	37	814	61	103	47	144	562	252	24	681	268	244	1410	101	≤ 10	174	328	IC50 (LEXFAL MOLT-4): 177 nM; IC50 (PRXF 22Rv1): 21 nM; IC50 (LXFL NCl-H1299): 353 nM; IC50 (BXF 5637): 143 nM; IC50 (MAXFTN ZR-75-1 (ER+)): 409 nM; IC50 (LIXFH HEP-3B): 171 nM; IC50 (CEXF HeLa): 268 nM; IC50 (MEXF MDA-MB-435): 102 nM; Cmax [1]: 6200 ng/mL; clearance [1]: 38.3 mL/min/kg; half-life [1]: 2.26 h; bioavailability ([2]; oral 100 mg/kg versus IV 30 mg/kg, read-out: BIOAVAILABILITY F): 36.3%; AUC [2, 3]: 14200 ng·h/mL; Cmax [2, 3]: 3360 ng/mL; MRT [2, 3]: 2.99 h; half-life [2, 3]: 3.1 h

From patent US20230048132A1, “CYCLIN-DEPENDENT KINASE INHIBITORS” (SPV THERAPEUTICS INC., priority 2018, published 2023)
